Experiment: Solid form stability of Form II (ambient storage, humidity, water suspension)
Assay type: physicochemical
Protocol: Form II was confirmed as a crystalline solid according to XRPD analysis. The XRPD pattern of Form II is shown in FIG. 17 and the peak data is given below in Table 7. […] The red pattern was recorded after storing Form II for 1 h and 20 min under ambient conditions.
Thermogravimetry coupled to Fourier Transform (TGA-FT) measurements taken during the conversion show a loss of trifluoroethanol above 100° C.

Question: Which “conversion at 80% relative humidity” value (80% relative humidity) does the source give for `Cc1ccccc1-c1cc(N2CCN(C)CC2)ncc1N(C)C(=O)C(C)(C)c1cc(C(F)(F)F)cc(C(F)(F)F)c1` [Form II, 2-(3,5-bis(trifluoromethyl)phenyl)-N,2-dimethyl-N-(6-(4-methylpiperazin-1-yl)-4-(o-tolyl)pyridin-3-yl)propanamide] here?
Answer: convert to Form I

Question: What about the “stability under ambient conditions” value (ambient conditions, XRPD) of the same molecule?
Answer: unstable under ambient conditions and converts to Form I

Question: What about the “conversion after storing under ambient conditions” value (stored 1 h and 20 min under ambient conditions, XRPD) of the same molecule?
Answer: partial conversion to Form I

Question: What about the “conversion upon suspension equilibration in water” value (suspension equilibration in water) of the same molecule?
Answer: convert to Form I

Source: patent US10676440B2, “Crystalline forms of an NK-1 antagonist” (Helsinn Healthcare SA, priority 2014, dated 2020)
